Measured values published in patent US20040116506A1, “Use of levetiracetam for treating or preventing acute headaches” (priority 2002, published 2004).

Experiments:
[1] = test system: recurrent migraine headaches; experiment: Oral levetiracetam as a prophylactic agent, small-scale open-label trial; assay type: in vivo; details: chronic daily oral treatment, 250 to 750 mg tablets; substantial fraction of patients
Description: A limited number of patients who were being treated by the Applicant for recurrent migraine headaches were placed on a regimen of daily oral levetiracetam, in a small-scale open-label trial. […] In general, the recurrent migraine patients who were chosen for this type of experimental trial were those who had not responded adequately to various other known candidate treatments. Patients kept daily records of the frequency of their migraine headaches, and also kept logs that recorded the severity of each headache, on a subjective scale of 1 to 10, with 1 being mild, and 10 being extremely intense pain.

[2] = test system: intractable migraine headache; experiment: Injectable (intravenous) levetiracetam for acute migraines, open-label study; assay type: in vivo, patients
Protocol: Sterile, preservative-free liquid preparations of levetiracetam, at concentrations of 200 mg/ml or 400 mg/ml, was prepared in a laminar flow hood by a compounding pharmacist. Particulate matter was filtered out through a series of filtrations and the solution was stabilized at a pH of 6.0. The resulting solution was clear. 29 patients were treated (19 female and 10 male), and a total of 42 intractable migraines were treated in this study. Their age range was 26 to 59 (mean age, 44 years). All patients had failed treatment with their usual migraine-specific or abortive therapies. Most patients (n=24) were in the second or third day of intractable migraine headache. 5 patients were treated on more than one occasion (1 patient was treated 6 separate times; 1 patient, 5 times, 1 patient, 3 times; and 2 patients, twice each). 6 patients (21%) were already on levetiracetam orally at the time of intravenous treatment. 23 were naive to levetiracetam at the time of treatment. Patients were treated in the setting of a headache clinic. An antecubital line was started and pulse oximetry monitoring was employed throughout treatment. No other medications were given orally or intravenously to treat the migraine. In a typical treatment for a first-time patient, a test dose of 400 mg levetiracetam was given, and then 400-600 mg was given every 5 minutes, until maximum effect was reported by the patient. The average dosage given intravenously was 5940 mg (range 400 to 16,000 mg). The average time to best response after treatment was 66 min (range=20-120 min). Prior to treatment, migraine severity (reported by each patient on a 0 to 10 numeric rating scale (NRS), with 10 representing the absolute worst possible pain) was 8.4. After treatment, it was 1.6, which represents a mean reduction of 81% in migraine severity. 16 patients (55%), representing 21 of 42 episodes, had complete resolution of their ongoing migraine, to a reported severity of zero. Only one patient had no reported response to the treatment.

epileptic seizures = details: taken chronically; patients who suffer from frequent seizures; cited from earlier work
[3] = over a wide dose range; cited from earlier work

patients reporting drowsiness ([2]; intravenous, of 29 patients): 2 patients
patients reporting transient nausea ([2]; intravenous, of 29 patients): 3 patients
Structure (SMILES): CC[C@@H](C(N)=O)N1CCCC1=O [levetiracetam]
reduced frequency and/or reduced severity of migraine headaches [1]: substantial benefits
episodes with complete resolution of ongoing migraine ([2]; intravenous): 21 of 42 episodes
side effects ([2]; intravenous): minimal
time to best response after treatment, range ([2]; intravenous, 29 patients, 42 migraines): 20 to 120 min
mean reduction in migraine severity ([2]; intravenous, NRS 8.4 prior to treatment vs 1.6 after): 81%
average time to best response after treatment ([2]; intravenous, average dosage 5940 mg, 29 patients, 42 migraines): 66 min
time until side effects dissipated spontaneously ([2]; intravenous, nausea and drowsiness): 30 to 90 min
patients with complete resolution of ongoing migraine, to a reported severity of zero ([2]; intravenous, of 29 patients): 16 patients
patients with no reported response to the treatment ([2]; intravenous, of 29 patients): one
share of patients with complete resolution of ongoing migraine ([2]; intravenous, of 29 patients): 55%
migraine severity after treatment (0 to 10 numeric rating scale, NRS) ([2]; intravenous, severity prior to treatment was 8.4): 1.6
outcome in patient treated for a combination of cluster headaches and migraines ([2]; one patient): resolution of both
reduction of the frequency of epileptic seizures (epileptic seizures): 15 to 30%
tolerability / toxicity [3]: well tolerated over a wide dose range with no apparent toxicity
